Counter-ions that a name gives are not always drawn. Like-named read-outs stand apart in the source and are kept apart here.
Experiments:
[1] = for log k′w / ElogDoct: pH 7.4
physchem = conditions: pH 7.4
[2] = pH 7.4, cited from earlier work
[3] = Reference logDoct at pH 7.4: literature shake-flask or countercurrent data, shake-vial and pH-metric determinations, averaged; conditions: Table 1, own shake-vial (Procedure A/B) and/or potentiometric determinations only
[4] = Table 1, capacity factor extrapolated to 0% methanol, average of three to five determinations
[5] = Table 1, average of literature references only
[6] = Table 1, from log k′w by Equation 1

SMILES	log k′w [1, 4]	chromatographic logD (physchem)	logDoct [2, 5]	other results
Oc1cccc(Cl)c1 [3-Chlorophenol]	2.58	3.11		Res (logDoct − ElogDoct) ([1]; Table 1): −0.61
CN(C)CCCN1c2ccccc2CCc2ccccc21 [Imipramine]	1.56			
CN(C)CCCN1c2ccccc2Sc2ccc(Cl)cc21 [Chlorpromazine]	2.66	3.2		
NC(=O)N/N=C/c1ccc([N+](=O)[O-])o1 [Nitrofurazone]	0.29	0.53	0.23	
CCOC(=O)N1CCC(=C2c3ccc(Cl)cc3CCc3cccnc32)CC1 [Loratadine]	4.02			
c1ccc2ncccc2c1 [Quinoline]	1.52	1.92		logDoct [2]: 2.03
CC(=O)OCC(=O)[C@@]1(O)CC[C@H]2[C@@H]3CCC4=CC(=O)CC[C@]4(C)[C@H]3[C@@H](O)C[C@@]21C [Hydrocortisone-21 acetate]	1.64			Res (logDoct − ElogDoct) ([1]; Table 1): 0.13; ElogDoct [1, 6]: 2.06; logDoct [2]: 2.19
COc1ccc([C@@H]2Sc3ccccc3N(CCN(C)C)C(=O)[C@@H]2OC(C)=O)cc1 [Diltiazem]	1.59	2		logDoct [3]: 2.06
O=C1Nc2ccc(Cl)cc2C(c2ccccc2Cl)=NC1O (stereo not drawn) [Lorazepam]	2.30	2.8		Res (logDoct − ElogDoct) ([1]; Table 1): −0.29
CN(C)CCC(c1ccc(Cl)cc1)c1ccccn1 (stereo not drawn) [Chlorpheniramine]	1.20			
CC/C(=C(/CC)c1ccc(O)cc1)c1ccc(O)cc1 [Diethylstilbestrol]	4.12	4.85	5.07	
CN1[C@@H]2CC[C@H]1C[C@@H](OC(=O)C(CO)c1ccccc1)C2 (stereo partly drawn) [Atropine]				log k′w [1]: −0.33
CC(C)(C)NCC(O)c1cc(O)cc(O)c1 (stereo not drawn) [Terbutaline sulfate]	−1.51	-1.49	−1.35	
CNC(=NCCSCc1csc(N=C(N)N)n1)NC#N [Tiotidine]	0.57	0.85		logDoct [3]: 0.57
Brc1cnc2ccccc2c1 [3-Bromoquinoline]	2.53		3.03	
CN1C(=O)C(O)N=C(c2ccccc2Cl)c2cc(Cl)ccc21 (stereo not drawn) [Lormetazepam]	2.27	2.77	2.72	Res (logDoct − ElogDoct) ([1]; Table 1): −0.05
O=C1CN=C(c2ccccn2)c2cc(Br)ccc2N1 [Bromazepam]	1.04	1.38	1.65	Res (logDoct − ElogDoct) ([1]; Table 1): 0.27
CCN(CC)CC(=O)Nc1c(C)cccc1C [Lidocaine]	0.96			
CCOC(=O)C1=C(COCCN)NC(C)=C(C(=O)OC)C1c1ccccc1Cl (stereo not drawn) [Amlodipine]		2.15		
CN/C(=N/CCSCc1nc[nH]c1C)NC#N [Cimetidine]	0.17			logDoct [3]: 0.35
CCN(CC)CCNC(=O)c1cc(S(C)(=O)=O)ccc1OC [Tiapride]	−0.58	-0.45		logDoct [3]: −0.90
Nc1nc(N)c2nc(-c3ccccc3)c(N)nc2n1 [Triamterene]	0.71	1.01		

SMILES	log k′w [1, 4]	chromatographic logD (physchem)	logDoct [2, 5]	other results
CCN(CC)CCNC(=O)c1ccc(N)cc1 [Procainamide]	−0.69	-0.57		
C=CCc1ccccc1OCC(O)CNC(C)C (stereo not drawn) [Alprenolol]	0.37	0.62		
O=C(NCC1CCCCN1)c1cc(OCC(F)(F)F)ccc1OCC(F)(F)F (stereo not drawn) [Flecainide]	0.25	0.49		
C[C@@H]1C[C@H]2[C@@H]3CCC4=CC(=O)C=C[C@]4(C)[C@@]3(F)[C@@H](O)C[C@]2(C)[C@@]1(O)C(=O)CO [Dexamethasone]		2.03	1.83	
C[C@]12C=CC(=O)C=C1CC[C@@H]1[C@@H]2C(=O)C[C@@]2(C)[C@H]1CC[C@]2(O)C(=O)CO [Prednisone]	0.90	1.22		
NS(=O)(=O)c1cc2c(cc1Cl)NC(C1CC3C=CC1C3)NS2(=O)=O (stereo not drawn) [Cyclothiazide]	2.15	2.63		logDoct [3]: 2.09
CC(=O)CCCCn1c(=O)c2c(ncn2C)n(C)c1=O [Pentoxifylline]	0.03	0.24	0.29	
c1ccc(-c2ccc(C(c3ccccc3)n3ccnc3)cc2)cc1 (stereo not drawn) [Bifonazole]	4.33	5.09	4.77	
CN1C(=O)CN=C(c2ccccc2)c2cc(Cl)ccc21 [Diazepam]				log k′w [1]: 2.46
NS(=O)(=O)c1cc(C2(O)NC(=O)c3ccccc32)ccc1Cl (stereo not drawn) [Chlorthalidone]	0.76	1.06		
CCCCNc1ccc(C(=O)OCCN(C)C)cc1 [Tetracaine]	1.70	2.12	2.29	Res (logDoct − ElogDoct) ([1]; Table 1): 0.17
COC1=CC(=O)C[C@@H](C)[C@]12Oc1c(Cl)c(OC)cc(OC)c1C2=O [Griseofulvin]	1.73	2.16	2.18	
CSc1ccc2c(c1)N(CCC1CCCCN1C)c1ccccc1S2 (stereo not drawn) [Thioridazine]	2.88	3.45		
C[C@]12CC[C@H]3[C@@H](CCC4=CC(=O)CC[C@@]43C)[C@@H]1CC[C@@H]2O [Testosterone]	2.63		3.29	Res (logDoct − ElogDoct) ([1]; Table 1): 0.12; ElogDoct [1]: 3.17
Cc1nc2n(c(=O)c1CCN1CCC(c3noc4cc(F)ccc34)CC1)CCCC2 [Risperidone]	1.23	1.59		Res (logDoct − ElogDoct) ([1]; Table 1): 0.45
CS(=O)(=O)c1ccc([C@@H](O)[C@@H](CO)NC(=O)C(Cl)Cl)cc1 [Thiamphenicol]	−0.05	0.15	−0.27	
CC(C)NCC(O)c1ccc(NS(C)(=O)=O)cc1 (stereo not drawn) [Sotalol]	−1.47	-1.45		
Cc1cccc(N(C)C(=S)Oc2ccc3ccccc3c2)c1 [Tolnaftate]	4.53			
CSc1ncnc2c1ncn2[C@@H]1O[C@H](CO)[C@@H](O)[C@H]1O [Methylthioinosine]	0.25			Res (logDoct − ElogDoct) ([1]; Table 1): −0.40; ElogDoct [1, 6]: 0.49; logDoct [2]: 0.09
C[C@]12CCC(=O)C=C1CC[C@@H]1[C@@H]2[C@@H](O)C[C@@]2(C)[C@H]1CC[C@]2(O)C(=O)CO [Hydrocortisone]		1.49		
Clc1cccc(Cl)c1N=C1NCCN1 [Clonidine]	0.07	0.29	0.62	
COCCc1ccc(OCC(O)CNC(C)C)cc1 (stereo not drawn) [Metoprolol]	−0.73	-0.62		

SMILES	log k′w [1, 4]	chromatographic logD (physchem)	logDoct [2, 5]	other results
Cc1ncc([N+](=O)[O-])n1CCO [Metronidazole]	−0.08	0.12	−0.02	
CNC(=C[N+](=O)[O-])NCCSCc1ccc(CN(C)C)o1 [Ranitidine]		-0.5		logDoct [3]: −0.29
COc1ccc2[nH]c([S+]([O-])Cc3ncc(C)c(OC)c3C)nc2c1 (stereo not drawn) [Omeprazole]		2		
c1ccc2ccccc2c1 [Naphthalene]	3.03	3.62		
NC(=O)N1c2ccccc2C=Cc2ccccc21 [Carbamazepine]	1.40		2.19	
C[C@]12CC[C@@H]3c4ccc(O)cc4CC[C@H]3[C@@H]1CC[C@@H]2O [Estradiol]		3.9		
COC(=O)[C@H]1[C@@H](OC(=O)c2ccccc2)C[C@@H]2CC[C@H]1N2C [Cocaine]		0.48	1.05	Res (logDoct − ElogDoct) ([1]; Table 1): 0.57
CN(C)CCOC(c1ccccc1)c1ccccc1 [Diphenhydramine]	1.04			
Clc1ccccc1C(c1ccccc1)(c1ccccc1)n1ccnc1 [Clotrimazole]	4.03	4.75		
Oc1cc(Cl)cc(Cl)c1 [3,5-Dichiorophenol]	3.44			Res (logDoct − ElogDoct) ([1]; Table 1): −0.40; ElogDoct [1]: 4.08; logDoct [2]: 3.68
CN1CC[C@]23c4c5ccc(O)c4O[C@H]2[C@@H](O)C=C[C@H]3[C@H]1C5.O=S(=O)(O)O [Morphine sulfate]				log k′w [1]: 0.10
CC(=O)c1ccccc1 [Acetophenone]	1.21	1.57		
O=[N+]([O-])c1ccc(/C=N/O)o1 [Nifuroxime]	1.14	1.49	1.28	
CCCCc1oc2ccccc2c1C(=O)c1cc(I)c(OCCN(CC)CC)c(I)c1 [Amiodarone]	5.10			
CC(=O)Nc1ccc(O)cc1 [Acetominophen]	0.15			Res (logDoct − ElogDoct) ([1]; Table 1): 0.13; ElogDoct [1, 6]: 0.38
O=C(CCCN1CCC(O)(c2ccc(Cl)cc2)CC1)c1ccc(F)cc1 [Haloperidol]	2.00	2.46		
CN1CCN(C2=Nc3cc(Cl)ccc3Nc3ccccc32)CC1 [Clozapine]		3.38		
C[C@]12C=CC(=O)C=C1CC[C@@H]1[C@@H]2[C@@H](O)C[C@@]2(C)[C@H]1CC[C@]2(O)C(=O)CO [Prednisolone]	1.24	1.6		
COc1ccc2c3c1O[C@H]1[C@@H](O)C=C[C@H]4[C@@H](C2)N(C)CC[C@@]341 [Codeine]	0.16	0.39	0.23	Res (logDoct − ElogDoct) ([1]; Table 1): −0.16
CNC(=C[N+](=O)[O-])NCCSCc1csc(CN(C)C)n1 [Nizatidine]	−0.13	0.06	−0.52	
